Read-outs that look alike come from different tables or passages of the source.
How the values were obtained:
[1] = tested on: K-aerogenes strains producing both a plasmid-mediated and chromosomally mediated β-lactamase; test: MIC of compound (i) alone and in combination with compound (iii), K. aerogenes strains; type: cell-based, Klebsiella aerogenes; settings: for MIC: Klebsiella aerogenes
Serratia marcescens US39 = test: MIC of compound (i) alone and in the presence of compound (iv), serial dilution in nutrient agar; type: cell-based
Procedure: (§1) Activities of the compound (i) against a number of pathogenic organisms alone, and in the presence of 1.0, 2.5, 5.0 and 10 µg/ml of compound (iv).

[2] = tested on: Staphylococcus aureus Russell; test: as above; type: cell-based
Procedure: as §1

CC1(C)S[C@@H]2[C@H](NC(=O)[C@H](NC(=O)Nc3cnc(Nc4ccc(S(N)(=O)=O)cc4)nc3O)c3ccc(O)cc3)C(=O)N2[C@H]1C(=O)O [compound (i)]
MIC ([1]; read-out: MIC µg/ml compound (i) alone): > 160 µg/mL | MIC ([1]; read-out: MIC µg/ml compound (i) alone, Geometric mean): > 160 µg/mL | MIC µg/ml compound (i) compound (iii) (µg/ml) 1, Geometric mean ([1]; geometric mean of 11 K. aerogenes strains, with compound (iii) 1 µg/ml, 95% confidence limits (0.49-50.9)): 5.0 µg/mL | MIC µg/ml compound (i) compound (iii) (µg/ml) 2, Geometric mean ([1]; geometric mean of 11 K. aerogenes strains, with compound (iii) 2 µg/ml, 95% confidence limits (0.3-14.4)): 2.1 µg/mL | MIC µg/ml compound (i) compound (iii) (µg/ml) 5, Geometric mean ([1]; geometric mean of 11 K. aerogenes strains, with compound (iii) 5 µg/ml, 95% confidence limits (0.14-4.5)): 0.81 µg/mL | MIC µg/ml compound (i) compound (iii) (µg/ml) 10, Geometric mean ([1]; geometric mean of 11 K. aerogenes strains, with compound (iii) 10 µg/ml, 95% confidence limits (0.04-0.9)): 0.19 µg/mL | MIC µg/ml compound (i) alone ([1]; strain 11793): >160 µg/mL | MIC µg/ml compound (i) compound (iii) (µg/ml) 1 ([1]; strain 11793, with compound (iii) 1 µg/ml): 10 µg/mL | MIC µg/ml compound (i) compound (iii) (µg/ml) 2 ([1]; strain 11793, with compound (iii) 2 µg/ml): 5 µg/mL | MIC µg/ml compound (i) compound (iii) (µg/ml) 5 ([1]; strain 11793, with compound (iii) 5 µg/ml): 2.5 µg/mL | MIC µg/ml compound (i) compound (iii) (µg/ml) 10 ([1]; strain 11793, with compound (iii) 10 µg/ml): 1.25 µg/mL | MIC µg/ml compound (i) alone ([1]; strain 11974): >160 µg/mL | MIC µg/ml compound (i) compound (iii) (µg/ml) 1 ([1]; strain 11974, with compound (iii) 1 µg/ml): 0.31 µg/mL | MIC µg/ml compound (i) compound (iii) (µg/ml) 2 ([1]; strain 11974, with compound (iii) 2 µg/ml): 0.16 µg/mL | MIC µg/ml compound (i) compound (iii) (µg/ml) 5 ([1]; strain 11974, with compound (iii) 5 µg/ml): 0.08 µg/mL | MIC µg/ml compound (i) compound (iii) (µg/ml) 10 ([1]; strain 11974, with compound (iii) 10 µg/ml): 0.04 µg/mL | MIC µg/ml compound (i) compound (iii) (µg/ml) 2 ([1]; strain BED4, with compound (iii) 2 µg/ml): 2.5 µg/mL | MIC µg/ml compound (i) compound (iii) (µg/ml) 5 ([1]; strain BED4, with compound (iii) 5 µg/ml): 1.25 µg/mL | MIC µg/ml compound (i) compound (iii) (µg/ml) 10 ([1]; strain BED4, with compound (iii) 10 µg/ml): 0.31 µg/mL | MIC µg/ml compound (i) alone ([1]; strain BED6): >160 µg/mL | MIC µg/ml compound (i) compound (iii) (µg/ml) 1 ([1]; strain BED6, with compound (iii) 1 µg/ml): 0.62 µg/mL | MIC µg/ml compound (i) compound (iii) (µg/ml) 2 ([1]; strain BED6, with compound (iii) 2 µg/ml): 0.31 µg/mL | MIC µg/ml compound (i) compound (iii) (µg/ml) 5 ([1]; strain BED6, with compound (iii) 5 µg/ml): 0.16 µg/mL | MIC µg/ml compound (i) compound (iii) (µg/ml) 10 ([1]; strain BED6, with compound (iii) 10 µg/ml): 0.08 µg/mL | MIC µg/ml compound (i) alone ([1]; strain BED9): >160 µg/mL | MIC µg/ml compound (i) compound (iii) (µg/ml) 1 ([1]; strain BED9, with compound (iii) 1 µg/ml): 0.31 µg/mL | MIC µg/ml compound (i) compound (iii) (µg/ml) 2 ([1]; strain BED9, with compound (iii) 2 µg/ml): 0.31 µg/mL | MIC µg/ml compound (i) compound (iii) (µg/ml) 5 ([1]; strain BED9, with compound (iii) 5 µg/ml): 0.16 µg/mL | MIC µg/ml compound (i) compound (iii) (µg/ml) 10 ([1]; strain BED9, with compound (iii) 10 µg/ml): 0.04 µg/mL | MIC µg/ml compound (i) alone ([1]; strain Ba95): >160 µg/mL | MIC µg/ml compound (i) compound (iii) (µg/ml) 1 ([1]; strain Ba95, with compound (iii) 1 µg/ml): 0.31 µg/mL | MIC µg/ml compound (i) compound (iii) (µg/ml) 2 ([1]; strain Ba95, with compound (iii) 2 µg/ml): 0.31 µg/mL | MIC µg/ml compound (i) compound (iii) (µg/ml) 5 ([1]; strain Ba95, with compound (iii) 5 µg/ml): 0.16 µg/mL | MIC µg/ml compound (i) compound (iii) (µg/ml) 10 ([1]; strain Ba95, with compound (iii) 10 µg/ml): 0.02 µg/mL | MIC µg/ml compound (i) alone ([1]; strain SA4): >160 µg/mL | MIC µg/ml compound (i) compound (iii) (µg/ml) 1 ([1]; strain SA4, with compound (iii) 1 µg/ml): 2.5 µg/mL | MIC µg/ml compound (i) compound (iii) (µg/ml) 2 ([1]; strain SA4, with compound (iii) 2 µg/ml): 1.25 µg/mL | MIC µg/ml compound (i) compound (iii) (µg/ml) 5 ([1]; strain SA4, with compound (iii) 5 µg/ml): 0.31 µg/mL | MIC µg/ml compound (i) compound (iii) (µg/ml) 10 ([1]; strain SA4, with compound (iii) 10 µg/ml): 0.08 µg/mL | MIC µg/ml compound (i) alone ([1]; strain VA1): >160 µg/mL | MIC µg/ml compound (i) compound (iii) (µg/ml) 1 ([1]; strain VA1, with compound (iii) 1 µg/ml): 10 µg/mL | MIC µg/ml compound (i) compound (iii) (µg/ml) 2 ([1]; strain VA1, with compound (iii) 2 µg/ml): 5 µg/mL | MIC µg/ml compound (i) compound (iii) (µg/ml) 5 ([1]; strain VA1, with compound (iii) 5 µg/ml): 2.5 µg/mL | MIC µg/ml compound (i) compound (iii) (µg/ml) 10 ([1]; strain VA1, with compound (iii) 10 µg/ml): 0.31 µg/mL | MIC µg/ml compound (i) alone ([1]; strain VA2): >160 µg/mL | MIC µg/ml compound (i) compound (iii) (µg/ml) 1 ([1]; strain VA2, with compound (iii) 1 µg/ml): 40 µg/mL | MIC µg/ml compound (i) compound (iii) (µg/ml) 2 ([1]; strain VA2, with compound (iii) 2 µg/ml): 10 µg/mL | MIC µg/ml compound (i) compound (iii) (µg/ml) 5 ([1]; strain VA2, with compound (iii) 5 µg/ml): 2.5 µg/mL | MIC µg/ml compound (i) compound (iii) (µg/ml) 10 ([1]; strain VA2, with compound (iii) 10 µg/ml): 0.62 µg/mL | MIC µg/ml compound (i) alone ([1]; strain VA3): >160 µg/mL | MIC µg/ml compound (i) compound (iii) (µg/ml) 1 ([1]; strain VA3, with compound (iii) 1 µg/ml): 40 µg/mL | MIC µg/ml compound (i) compound (iii) (µg/ml) 2 ([1]; strain VA3, with compound (iii) 2 µg/ml): 10 µg/mL | MIC µg/ml compound (i) compound (iii) (µg/ml) 5 ([1]; strain VA3, with compound (iii) 5 µg/ml): 2.5 µg/mL | MIC µg/ml compound (i) compound (iii) (µg/ml) 10 ([1]; strain VA3, with compound (iii) 10 µg/ml): 0.31 µg/mL | MIC µg/ml compound (i) alone ([1]; strain VA5): >160 µg/mL | MIC µg/ml compound (i) compound (iii) (µg/ml) 1 ([1]; strain VA5, with compound (iii) 1 µg/ml): >80 µg/mL | MIC µg/ml compound (i) compound (iii) (µg/ml) 2 ([1]; strain VA5, with compound (iii) 2 µg/ml): 80 µg/mL | MIC µg/ml compound (i) compound (iii) (µg/ml) 5 ([1]; strain VA5, with compound (iii) 5 µg/ml): 20 µg/mL | MIC µg/ml compound (i) compound (iii) (µg/ml) 10 ([1]; strain VA5, with compound (iii) 10 µg/ml): 2.5 µg/mL | MIC (μg/ml) for compound (i) (Serratia marcescens US39; compound (iv) 0 μg/ml (alone)): 50 µg/mL | MIC (μg/ml) for compound (i) (Serratia marcescens US39; compound (iv) 1.0 μg/ml): 0.5 µg/mL | MIC (μg/ml) for compound (i) (Serratia marcescens US39; compound (iv) 2.5 μg/ml): 1.0 µg/mL | MIC (μg/ml) for compound (i) (Serratia marcescens US39; compound (iv) 5.0 μg/ml): 2.5 µg/mL | MIC (μg/ml) for compound (i) (Serratia marcescens US39; compound (iv) 10 μg/ml): 5.0 µg/mL | MIC (μg/ml) for compound (i) ([2]; compound (iv) 0 μg/ml (alone)): 50 µg/mL | MIC (μg/ml) for compound (i) ([2]; compound (iv) 1.0 μg/ml): 2.5 µg/mL | MIC (μg/ml) for compound (i) ([2]; compound (iv) 2.5 μg/ml): 2.5 µg/mL

From patent publication EP0049968A1, “Pharmaceutical compositions” (priority 1980, dated 1982)
